Measured values from patent publication US4224342A, “Guanidinobenzoic acid compounds and process for preparing the same” (Ono Pharmaceutical Co., Ltd., priority 1977, dated 1980).

Legend:
plasmin = target: T1, plasmin (Homo sapiens, UniProt P00747); test: In vitro inhibition of plasmin (human euglobulin, streptokinase, fibrinogen); assay type: biochemical; details: fibrinogen 4%, borate saline pH 7.4, 37° C., 30 minutes, read-out: 50% Inhibition Concentration, Anti-Plasmin
T1 construct: from tissue; host or cells: human euglobulin (blood plasma fraction), with streptokinase added
Procedure: 0.1 ml of human euglobulin (10 fold dilution), 0.1 ml of streptokinase (2000 unit/ml), 0.4 ml of fibrinogen (4% solution), 0.3 ml of a 0.1 M borate saline buffer solution (pH 7.4) and 0.1 ml of a solution of each of the following compounds represented by the formula (I) at various concentrations was allowed to react at a temperature of 37° C. for 30 minutes.

trypsin = target: T2, trypsin (Bos taurus, UniProt P00760); test: In vitro inhibition of trypsin hydrolysis of p-tosylarginine methyl ester; assay type: biochemical; details: trypsin 0.5 μg, p-tosylarginine methyl ester 20 mM, Tris-HCl pH 8.5, 37° C., 30 minutes; read-out: 50% Inhibition Concentration, Anti-Trypsin
T2 sequence (P00760 24-246): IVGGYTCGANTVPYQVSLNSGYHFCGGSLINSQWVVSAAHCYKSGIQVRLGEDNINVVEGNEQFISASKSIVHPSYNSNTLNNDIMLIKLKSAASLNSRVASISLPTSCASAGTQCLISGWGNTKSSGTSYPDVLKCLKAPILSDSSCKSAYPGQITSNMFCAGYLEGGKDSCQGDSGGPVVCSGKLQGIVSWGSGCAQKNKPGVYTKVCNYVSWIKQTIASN

Acute toxicity in mice = details: mouse, in vivo, route not given
Acute toxicity in rats = details: rat, in vivo, route and LD50 not given

T1 sequence (P00747 581-810 limits assumed): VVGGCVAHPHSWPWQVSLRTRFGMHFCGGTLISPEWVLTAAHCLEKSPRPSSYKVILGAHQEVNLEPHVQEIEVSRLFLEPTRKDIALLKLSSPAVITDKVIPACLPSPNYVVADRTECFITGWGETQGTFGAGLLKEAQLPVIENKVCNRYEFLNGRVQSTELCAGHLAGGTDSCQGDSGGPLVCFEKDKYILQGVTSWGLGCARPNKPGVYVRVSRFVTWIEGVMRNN
T1 sequence (P00747 97-580 partner limits assumed): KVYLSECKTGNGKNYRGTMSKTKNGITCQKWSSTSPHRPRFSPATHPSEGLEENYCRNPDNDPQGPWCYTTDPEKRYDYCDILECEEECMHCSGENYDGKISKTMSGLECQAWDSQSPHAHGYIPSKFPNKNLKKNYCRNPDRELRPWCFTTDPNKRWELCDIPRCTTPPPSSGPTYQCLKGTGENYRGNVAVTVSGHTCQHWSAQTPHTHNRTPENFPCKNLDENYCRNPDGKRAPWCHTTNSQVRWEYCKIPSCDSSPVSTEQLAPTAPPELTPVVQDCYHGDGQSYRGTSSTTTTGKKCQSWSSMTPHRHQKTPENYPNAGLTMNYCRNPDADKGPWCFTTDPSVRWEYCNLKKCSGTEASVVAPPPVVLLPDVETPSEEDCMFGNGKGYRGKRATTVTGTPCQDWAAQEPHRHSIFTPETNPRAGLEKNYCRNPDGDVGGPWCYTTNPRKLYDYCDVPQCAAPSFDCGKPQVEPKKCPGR

Structure (SMILES)	IC50 (plasmin)	IC50 (trypsin)	LD50 (Acute toxicity in mice)	LD50 (Acute toxicity in rats)
COC(=O)Cc1ccc(OC(=O)c2ccc(NC(=N)N)cc2)cc1 [methyl p-(p-guanidinobenzoyloxy)phenyl acetate]	220 nM	9 nM		
CS(=O)(=O)O.N=C(N)Nc1ccc(C(=O)Oc2ccc(CC(=O)O)cc2)cc1 [4-(4-guanidinobenzoyloxy)phenylacetic acid mesylate]			4500 mg/kg	4400 mg/kg
N=C(N)Nc1ccc(C(=O)Oc2ccc(CC(=O)O)cc2)cc1 [P-(p-Guanidinobenzoyloxy)phenylacetic Acid]	250 nM	29 nM		
